Measurements reported in ChEMBL document CHEMBL1134904, “The activity of p-methoxybenzylisothiocyanate against Neisseria gonorrhoeae, Haemophilus ducreyi, and other microorganisms” (Bioorg Med Chem Lett, 2002).
Values after ≈ are worked out from the molar mass of the structure shown.

What was measured:
Candida albicans = assay: The compound was tested for minimal inhibitory concentration against Candida albicans; assay type: functional
Neisseria gonorrhoeae [1] = assay: The compound was tested for minimal inhibitory concentration against Penicillinase producing Neisseria gonorrhoeae (PPNG); assay type: functional
Staphylococcus aureus [2] = assay: The compound was tested for minimal inhibitory concentration against Staphylococcus aureus; assay type: functional
Neisseria gonorrhoeae [3] = assay: The compound was tested for minimal inhibitory concentration against Neisseria gonorrhoeae; assay type: functional
Escherichia coli = assay: The compound was tested for minimal inhibitory concentration against Escherichia coli; assay type: functional
Enterobacter sp. = assay: The compound was tested for minimal inhibitory concentration against Enterobacter sp.; assay type: functional
Micrococcus luteus = assay: The compound was tested for minimal inhibitory concentration against Micrococcus luteus; assay type: functional
Staphylococcus aureus [4] = assay: The compound was tested for minimal inhibitory concentration against Resistant Staphylococcus aureus; assay type: functional
[Haemophilus] ducreyi = The compound was tested for minimal inhibitory concentration against Haemophilus ducreyi; assay type: functional
Pseudomonas aeruginosa [5] = assay: The compound was tested for minimal inhibitory concentration against Pseudomonas aeruginosa; assay type: functional
Bacillus subtilis = assay: The compound was tested for minimal inhibitory concentration against Bacillus subtilis; assay type: functional
Pseudomonas aeruginosa [6] = assay: The compound was tested for minimal inhibitory concentration against Resistant Pseudomonas aeruginosa; assay type: functional
[7] = In vitro cellular toxicity was determined at a concentration of 100 uM in Graham cell lines; found to be non toxic at the above concentration; assay type: cell-based

SMILES | MIC (Candida albicans) [µg/mL] | MIC (Neisseria gonorrhoeae [1]) [µg/mL] | MIC (Staphylococcus aureus [2]) [µg/mL] | MIC (Neisseria gonorrhoeae [3]) [µg/mL] | MIC (Escherichia coli) [µg/mL] | MIC (Enterobacter sp.) [µg/mL] | MIC (Micrococcus luteus) [µg/mL] | MIC (Staphylococcus aureus [4]) [µg/mL] | MIC ([Haemophilus] ducreyi) [µg/mL] | MIC (Pseudomonas aeruginosa [5]) [µg/mL] | MIC (Bacillus subtilis) [µg/mL] | MIC (Pseudomonas aeruginosa [6]) [µg/mL] | Toxicity [7]
C[C@@H]1[C@H](O)[C@@H](C)/C=C/C=C/C=C/C=C/C=C/C=C/C=C/[C@H](O[C@@H]2O[C@H](C)[C@@H](O)[C@H](N)[C@@H]2O)C[C@@H]2O[C@](O)(C[C@@H](O)C[C@@H](O)[C@H](O)CC[C@@H](O)C[C@@H](O)CC(=O)O[C@H]1C)C[C@H](O)[C@H]2C(=O)O (relative stereo) [AMPHOTERICIN B] | 2 (≈ 2.16 µM) |  |  |  |  |  |  |  |  |  |  |  | 
CC1(C)S[C@@H]2[C@H](NC(=O)[C@H](N)c3ccccc3)C(=O)N2[C@H]1C(=O)O [AMPICILLIN] |  | > 32 | 2 (≈ 5.72 µM) | 0.25 (≈ 0.715 µM) | 8 (≈ 22.9 µM) | 16 (≈ 45.8 µM) | 2 (≈ 5.72 µM) | > 32 | 2 (≈ 5.72 µM) | > 32 | > 32 |  | 
OC(Cn1cncn1)(Cn1cncn1)c1ccc(F)cc1F [FLUCONAZOLE] | 0.25 (≈ 0.816 µM) |  |  |  |  |  |  |  |  |  |  |  | 
COc1ccc(CN=C=S)cc1 | 2 (≈ 11.2 µM) | 4 (≈ 22.3 µM) | 2 (≈ 11.2 µM) | 4 (≈ 22.3 µM) | 32 (≈ 179 µM) | 8 (≈ 44.6 µM) | 8 (≈ 44.6 µM) | 8 (≈ 44.6 µM) | 64 (≈ 357 µM) | 16 (≈ 89.3 µM) | 32 (≈ 179 µM) | 16 (≈ 89.3 µM) | Not toxic
O=C(O)c1cn(C2CC2)c2cc(N3CCNCC3)c(F)cc2c1=O [CIPROFLOXACIN] |  | 0.25 (≈ 0.754 µM) | 2 (≈ 6.04 µM) | 0.25 (≈ 0.754 µM) |  | 2 (≈ 6.04 µM) | 2 (≈ 6.04 µM) | > 32 |  |  | 2 (≈ 6.04 µM) | > 32 | 
C[C@H]1c2cccc(O)c2C(=O)C2=C(O)[C@]3(O)C(=O)C(C(N)=O)=C(O)[C@@H](N(C)C)[C@@H]3[C@@H](O)[C@@H]21.O [DOXYCYCLINE] |  | > 32 | 8 | 0.5 | 2 | 8 | 8 | > 32 | 4 | 8 | 8 | > 32 | 
